Experimental data reported in US7576103B2, “Tetralin and indane derivatives and uses thereof” (Roche Palo Alto LLC, priority 2004, dated 2009).

Assays:
[1] = target: T1, recombinant human 5-HT6 receptor (Homo sapiens, UniProt P50406); assay: Radioligand binding, [3H]LSD competition, 5-HT6; details: membranes of HEK293 cells, pH 7.4, 37° C., read-out: pKi for the 5-HT6 receptor (converted)
T1 construct: expressed in transfected cells; cell membranes
Procedure: (§1) The binding activity of compounds of this invention in vitro was determined as follows. Duplicate determinations of 5-HT6 ligand affinity were made by competing for binding of [^3H]LSD in cell membranes derived from HEK293 cells stably expressing recombinant human 5-HT6 receptor. Duplicate determinations of 5-HT2A ligand affinity were made by competing for binding of [^3H]Ketanserin (3-(2-(4-(4-fluorobenzoyl)piperidinol)ethyl)-2,4(1H,3H)-quinazolinedione) in cell membranes derived from CHO-K1 cells stably expressing recombinant human 5-HT2A receptor. Membranes were prepared from HEK 293 cell lines by the method described by Monsma et al., Molecular Pharmacology, Vol. 43 pp. 320-327 (1993), and from CHO-K1 cell lines as described by Bonhaus et al., Br J Pharmacol. June 115(4):622-8 (1995).
(§2) For estimation of affinity at the 5-HT6 receptor, all determinations were made in assay buffer containing 50 mM Tris-HCl, 10 mM MgSO4, 0.5 mM EDTA, 1 mM ascorbic acid, pH 7.4 at 37° C., in a 250 microliter reaction volume. […]
(§3) Assay tubes containing [^3H] […] LSD or [^3H]Ketanserin were determined as radioactive counts per minute using Packard TopCount.
(§4) Displacement of [^3H]LSD or [^3H]Ketanserin from the binding sites was quantified by fitting concentration-binding data to a 4-parameter logistic equation: […]

[2] = target: T2, recombinant human 5-HT2A receptor (Homo sapiens, UniProt P28223); assay: Radioligand binding, [3H]Ketanserin competition, 5-HT2A; details: membranes of CHO-K1 cells, pH 7.4, 32° C., read-out: pKi for the 5-HT2A receptor (converted)
T2 construct: expressed in transfected cells; cell membranes
T2 sequence (P28223 whole entry): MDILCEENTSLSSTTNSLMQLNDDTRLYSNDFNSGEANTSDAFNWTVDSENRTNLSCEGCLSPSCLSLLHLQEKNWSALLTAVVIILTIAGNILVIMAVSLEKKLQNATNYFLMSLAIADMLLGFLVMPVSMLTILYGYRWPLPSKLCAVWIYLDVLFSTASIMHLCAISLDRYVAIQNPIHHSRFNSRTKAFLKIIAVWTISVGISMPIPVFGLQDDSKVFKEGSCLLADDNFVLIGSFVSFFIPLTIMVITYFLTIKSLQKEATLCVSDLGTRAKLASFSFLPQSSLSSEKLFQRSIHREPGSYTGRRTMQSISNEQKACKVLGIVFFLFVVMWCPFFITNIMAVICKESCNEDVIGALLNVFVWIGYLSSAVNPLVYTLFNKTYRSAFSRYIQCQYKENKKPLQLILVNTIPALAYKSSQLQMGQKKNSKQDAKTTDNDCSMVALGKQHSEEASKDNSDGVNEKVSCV
Procedure: as §1, §2, §3, §4

T1 sequence (P50406 whole entry): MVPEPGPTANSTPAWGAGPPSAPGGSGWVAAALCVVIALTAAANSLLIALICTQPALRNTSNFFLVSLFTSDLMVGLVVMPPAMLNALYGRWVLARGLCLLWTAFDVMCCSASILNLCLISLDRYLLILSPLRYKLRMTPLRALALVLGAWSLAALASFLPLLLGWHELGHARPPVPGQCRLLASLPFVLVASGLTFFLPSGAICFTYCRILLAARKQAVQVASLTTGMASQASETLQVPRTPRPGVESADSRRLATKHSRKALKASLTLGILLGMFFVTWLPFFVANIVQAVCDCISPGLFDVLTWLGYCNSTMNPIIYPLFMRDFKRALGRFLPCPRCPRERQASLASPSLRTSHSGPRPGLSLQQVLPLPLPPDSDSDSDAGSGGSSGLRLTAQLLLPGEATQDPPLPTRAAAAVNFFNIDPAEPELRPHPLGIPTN

Ki [1]: 1.82 nM
Ki [2]: 61.7 nM
SMILES: CNCCOC1CCCc2cc(S(=O)(=O)c3ccccc3)ccc21 (centres unmarked) [Compound 5, [2-(6-Benzenesulfonyl-1,2,3,4-tetrahydro-naphthalen-1-yloxy)-ethyl]-methyl-amine]
